Results from patent US10788496B2, “MEK1 mutation conferring resistance to RAF and MEK inhibitors” (Dana-Farber Cancer Institute, Inc., priority 2010, dated 2020).

Assays:
[1] = test system: A375 cells expressing the MEK1 C121S mutation; assay: Growth inhibition of A375 melanoma cells transfected with MEK1 C121S mutant; assay type: cell-based; conditions: for resistance of cells to the inhibitor (in words): A375 cells expressing MEK1 C121S, growth inhibition; for fold greater GI-50 value of MEK1 C121S cells: versus wild-type A375 cells or A375 cells expressing MEK-WT (for AZD6244 also MEK-DD)
From the text: FIGS. 1A and 1B are graphs showing the percent growth inhibition of A375 melanoma cells treated with increasing concentrations (in μM) of either the BRAF inhibitor PLX4720 (FIG. 1A) or the MEK1 inhibitor AZD6244 (FIG. 1B), wherein the A375 cells were either untransfected (A375), transfected with wild-type MEK1 (MEK-WT), transfected with the MEK1 C121S mutant (MEK-C121S) or transfected with a constitutively active MEK variant (MEK-DD).
It has previously been shown that mutations proximal to the C-helix of MEK1 can confer resistance to BRAF inhibition by PLX4032 by upregulating intrinsic MEK1 kinase activity (Emery, C. M. et al., (2009) Proc. Natl. Acad. Sci. USA 106:20411-20416). Therefore, it seemed plausible that the MEK1 C121 mutation, which is also located proximal to the C-helix, might have caused resistance to PLX4032 in the patient's recurrent tumor. To test this, the C121S was introduced mutation into the sequence of wild-type MEK1 and the mutant cDNA was expressed in the A375 melanoma cell line, which harbors a BRAF V600E mutation. To introduce the […] mutation into the wild-type MEK1 sequence, MEK1 site-directed mutagenesis was performed as previously described (Emery, C. M. et al., (2009) Proc. Natl. Acad. Sci. USA […]). Briefly, MEK1 cDNA was amplified by PCR and site-directed mutagenesis was conducted using Quick-Change II (Stratagene) as per the manufacturer's instructions. As controls, the wild-type MEK1 sequence or a constitutively active variant of MEK1, referred to as MEK1-DD, was expressed in the A375 melanoma cells.
To examine the effect of the MEK1 C121S mutation on responsiveness of the A375 melanoma cells to inhibitors, A375 cells (either untransfected cells, or cells transfected with either the wild-type MEK1, the C121S mutant MEK1, or the constitutively active variant MEK1-DD) were treated with increasing amounts of either the BRAF inhibitor PLX4720 (purchased from Symansis, Inc.), which is a compound closely related to PLX4032, or the MEK1 inhibitor AZD6244 (purchased from Selleck Chemical Co., Ltd.). The results are shown in the graphs of FIGS. 1A (PLX4720 treatment) and 1B (AZD6244 treatment).

[2] = test system: MEK; conditions: cited from earlier work
[3] = test system: human colon cancer xenograft; conditions: cited from earlier work
[4] = test system: metastatic melanoma with BRAF V600E mutation; assay: Case of a patient with BRAF V600E metastatic melanoma treated with PLX4032 in a clinical trial; assay type: in vivo, human; conditions: single patient
Experimental: The patient was a person who was diagnosed with metastatic melanoma in February 2009. […] They were treated with several therapeutic regimens with minimal clinical response. By October 2009, the patient had developed numerous subcutaneous metastatic deposits.
In late February 2010, after 4 months of therapy with PLX4032, the patient rapidly developed new subcutaneous nodules all over their body and PLX4032 was stopped. At this point, they provided written informed consent and a percutaneous core biopsy of a recurrent subcutaneous nodule on the chest was obtained. In order to determine possible mechanisms of resistance to PLX4032 in this tumor, the exons from 138 cancer genes from this sample were sequenced using massively parallel sequencing. The patient continued to have rapid progression of their disease and died on hospice in March 2010.

[5] = test system: melanoma with BRAF V600E mutations; conditions: cited from earlier work

CCCS(=O)(=O)Nc1ccc(F)c(C(=O)c2c[nH]c3ncc(Cl)cc23)c1F [PLX4720]
resistance of cells to the inhibitor (in words) [1]: strongly resistant | fold greater GI-50 value of MEK1 C121S cells [1]: 100 fold

O=C(NOCC1CC1)c1ccc(F)c(F)c1Nc1ccc(I)cc1Cl [CI-1040]
MEK inhibition in cell-based assays (in words) [2]: inhibited MEK | effect on xenograft growth (in words) [3]: reduced human colon cancer xenograft growth

CCCS(=O)(=O)Nc1ccc(F)c(C(=O)c2c[nH]c3ncc(-c4ccc(Cl)cc4)cc23)c1F [PLX4032]
duration of therapy until new subcutaneous nodules developed (relapse) [4]: 4 months | tumor response (in words) ([4]; after 15 weeks of therapy): near complete regression of all visible tumor nodules | time to visible partial response ([4]; from starting PLX4032): ≤ 2 weeks | patients with at least 30% tumor response by RECIST criteria ([5]; Phase I, 19 of 27 patients, oral): 70% | average time to relapse (resistance) ([5]; patients treated with PLX4032): 9 months

Cn1cnc2c(F)c(Nc3ccc(Br)cc3Cl)c(C(=O)NOCCO)cc21 [AZD6244]
resistance of cells to the inhibitor (in words) [1]: strongly resistant | fold greater GI-50 value of MEK1 C121S cells [1]: ~1000 fold
